SMILES strings stand for the structures. In brackets after ≈: the same amount, converted by molar mass. Where only a bound is given, the exact number is not on record here.

Type in all cases: functional
One experiment relates to Staphylococcus aureus. In words: In vitro inhibitory concentration required against Staphylococcus aureus (Staphylococcus aureus).
Experiment [1] concerns Staphylococcus epidermidis. In words: In vitro inhibitory concentration required against Staphylococcus epidermidis (Staphylococcus epidermidis).
For another experiment, the system named is Micrococcus luteus. Put plainly: In vitro inhibitory concentration required against Micrococcus luteus (Micrococcus luteus).

What is called MIC is the least concentration at which growth counts as inhibited. Turning to `CC[C@H](C)[C@@H](N)C1=N[C@@H](C(=O)N[C@H](CC(C)C)C(=O)N[C@@H](CCC(=O)O)C(=O)N[C@@H](C(=O)N[C@@H]2CCCCNC(=O)[C@@H](CC(N)=O)NC(=O)[C@H](CC(=O)O)NC(=O)[C@@H](Cc3c[nH]cn3)NC(=O)[C@H](Cc3ccccc3)NC(=O)[C@@H]([C@@H](C)CC)NC(=O)[C@H](CCCN)NC2=O)[C@@H](C)CC)CS1` (stereo in doubt; form 2) [BACITRACIN A], the MIC with Staphylococcus aureus is 4 µg/mL (≈ 2.81 µM); in experiment [1] it was 32 µg/mL (≈ 22.5 µM).

Take `CC[C@H](C)[C@@H](N)C1=N[C@@H](C(=O)N[C@H](CC(C)C)C(=O)N[C@@H](CCC(=O)O)C(=O)N[C@@H](C(=O)N[C@@H]2CCCCNC(=O)[C@@H](CC(N)=O)NC(=O)[C@H](CC(=O)O)NC(=O)[C@@H](Cc3c[nH]cn3)NC(=O)[C@H](Cc3ccccc3)NC(=O)[C@@H]([C@@H](C)CC)NC(=O)[C@H](CCCN)NC2=O)[C@@H](C)CC)CS1` (stereo in doubt; form 1) [BACITRACIN A]: the minimum inhibitory concentration (MIC) in the experiment with Micrococcus luteus was less than 0.013 µg/mL; in the experiment with Staphylococcus aureus (Staphylococcus aureus, read-out: MIC), 4 µg/mL (≈ 2.81 µM); in experiment [1] (Staphylococcus epidermidis, read-out: MIC), 32 µg/mL (≈ 22.5 µM).
